Laboratory results: patent US9402839B2, “Selective targeting agents for mitochondria” (University of Pittsburgh—Of the Commonwealth System of …, priority 2006, dated 2016)

Assays:
[1] = tested on: mouse embryonic cells (MEC); format: cell-based
Method: Electron paramagnetic resonance (“EPR”) spectroscopy was used to monitor the cellular delivery of compounds 5a and 5b shown in FIG. 2 in mouse embryonic cells (“MEC”).
The following conditions were used during the EPR-based analysis of the integration and reduction of nitroxide Gramicidin S-peptidyl conjugates in MECs. The MECs at a concentration of 10 million MECs per mL were incubated with 10 μM of 4-AT and compound 5a, respectively. Recovered nitroxide radicals in whole cells, mitochondria, and cytosol fractions were resuspended in phosphate buffer saline (“PBS”) in the presence and absence, respectively, of 2 μM K3Fe(CN)6.

caspases 3 and 7 = experiment: Caspases 3 and 7 activity assay in rat gut mucosa homogenate after hemorrhagic shock; format: in vivo; conditions: intraluminal 10 μM versus vehicle
Method: (§1) After 2 h of shock, the animals were euthanized with an intracardiac KCl bolus injection. The ileum was rapidly excised from the ileocecal valve to the most proximal gut segment. The tips of each segment were discarded. In order to assay caspases 3 and 7 activity and phospholipids peroxidation, mucosa samples were collected from gut segments immediately after hemorrhage and stored at −80° C. For permeability measurements, each segment was converted into an everted gut sac, as previously described by Wattanasirichaigoon et al., see Wattanasirichaigoon, S. et al., Effect of mesenteric ischemia and reperfusion or hemorrhagic shock on intestinal mucosal permeability and ATP content in rats, SHOCK, 12:127-133 (1999).
Caspases 3 and 7 activity assay. Caspases 3 and 7 activity was measured using a commercially available assay kit, CASPASE GLO™ 3/7 assay kit (PROMEGA, Madison, Wis.). […] At the end of incubation period, the luminescence of each sample was measured using a plate reading chemiluminometer (ML1000, DYNATECH LABORATORIES, Horsham, Pa.). Activity of caspases 3 and 7 was expressed as luminescence intensity (arbitrary units per mg protein). Protein concentrations were determined using the BIORAD assay (BIO-RAD LABORATORIES, Inc., Hercules, Calif.). […]

[2] = tested on: phospholipids in intestinal mucosa; experiment: Assay for peroxidation of phospholipids in gut mucosa after hemorrhagic shock; format: in vivo, rat; conditions: intraluminal 10 μM, 2 h HS
Method: as §1
Assay for peroxidation of phospholipids. Gut mucosal samples were homogenized. Lipids were extracted from homogenates using the Folch procedure, see M. Lees and G. H. Sloan-Stanley, A simple method for isolation and purification of total lipids from animal tissue, J. BIOL. CHEM. 226:497-509 (1957), and resolved by 2D HPTLC (High Performance Thin Layer Chromatography) as previously described, see Kagan, V. E. et al., A role for oxidative stress in apoptosis: Oxidation and externalization of phosphatidylserine is required for macrophage clearance of cell undergoing Fas-mediated apoptosis, J. IMMUMOL. 169:487-489 (2002). Spots of phospholipids were scraped from HPTLC plates and phospholipids were extracted from silica. Lipid phosphorus was determined by a micro-method, see Bottcher, C. J. F. et al., A rapid and sensitive sub-micro phosphorus determination, ANAL. CHIM. ACTA 24: 203-204 (1961).
Oxidized phospholipids were hydrolyzed by pancreatic phospholipase A2 (2 U/μl) in 25 mM phosphate buffer containing 1 mM CaCl2, 0.5 mM EDTA and 0.5 mM sodium dodecyl sulfate (SDS) (pH 8.0, at room temperature for 30 min). Fatty acid hydroperoxides formed were determined by fluorescence HPLC of resorufin stoichiometrically formed during their microperoxidase 11-catalized reduction in presence of Amplex Red (for 40 min at 4° C.) (8). Fluorescence HPLC (ECLIPSE XDB-C18 column, 5 μm, 150×4.6 mm, mobile phase was composed of 25 mM disodium phosphate buffer (pH 7.0)/methanol (60:40 v/v); excitation wavelength 560 nm, emission wavelength 590 nm) was performed on a SHIMADZU LC-100AT HPLC system equipped with fluorescence detector (RF-10Ax1) and autosampler (SIL-10AD).
In the subsequent series of in vivo studies, the affect of intraluminal XJB-5-131 on hemorrhage-induced peroxidation of phospholipids in intestinal mucosa was examined. […] In a preferred embodiment, 0.3 mL of test solution filled the lumen of each ileal compartment. […]

MECs = experiment: ActD-induced apoptosis in MECs (PS externalization, caspase-3 activation, DNA fragmentation); format: cell-based, mouse
Source text: Cells that annexin V-positive and PI-negative were considered apoptotic.

Q: With CC(C)C[C@@H](/C=C/[C@H](Cc1ccccc1)C(=O)N1CCC[C@H]1C(=O)N[C@H](C(=O)N[C@@H](CCCNC(=O)OCc1ccccc1)C(=O)NC1CC(C)(C)N([O])C(C)(C)C1)C(C)C)NC(=O)OC(C)(C)C [XJB-5-131] as the compound, how does the “EPR triplet signals of nitroxide radicals in MECs and in mitochondria isolated from these cells” value ([1]; 10 μM, no EPR signal in the cytosolic fraction) read?
A: Distinctive characteristic triplet signals of nitroxide radicals were detected

Q: What about the “integration and one-electron reduction in MECs (EPR signal increase upon ferricyanide)” value ([1]; 10 μM, with and without K3Fe(CN)6) of the same compound?
A: resulted in integration and one-electron reduction

Q: And the “concentration in the mitochondria of cultured mouse embryonic cells” value ([1]; after incubation with solutions of the compounds)?
A: concentrated in the mitochondria

Q: What about the “caspase 3 and 7 activity in ileal mucosa after hemorrhagic shock” value (caspases 3 and 7) of the same compound?
A: significantly decreased

Q: What about the “hemorrhage-induced peroxidation of cardiolipin (CL)” value [2] of the same compound?
A: significantly ameliorated

Q: And the “peroxidation of phosphatidylcholine (PC)” value [2]?
A: no effect

Q: What about the “peroxidation of phosphatidylethanolamine (PE)” value [2] of the same compound?
A: small effect

Q: And the “peroxidation of phosphatidylserine (PS)” value [2]?
A: no effect

Q: What about the DNA fragmentation (MECs; 10 μM, ActD 100 ng/mL) of the same compound?
A: prevented DNA fragmentation

Q: And the “PS externalization (annexin V-positive cells)” value (MECs; 10 μM, ActD 100 ng/mL)?
A: reduced the number of annexin V-positive cells

Q: And the caspase-3 activation (MECs; 10 μM, ActD 100 ng/mL)?
A: prevented caspase-3 activation

Q: And the “anti-apoptotic protection / cytotoxicity at higher concentrations” value (MECs; concentrations in excess of 10 μM)?
A: either less protective or exhibited cytotoxicity
